Patent publication US8586565B2, “Kinase inhibitors useful for the treatment of myleoproliferative diseases and other proliferative diseases” (Deciphera Pharmaceuticals, LLC, priority 2006, dated 2013)
pIC50: −log10 of the molar value.

Columns and labels:
[1] = target: T1, pAbl kinase (Seq. ID no. 1) (Homo sapiens, UniProt P00519); assay: pAbl kinase spectrophotometric coupled kinase assay; format: biochemical; conditions: for pIC50: phosphorylated-Abl kinase, 2 h preincubation, ATP 500 μM, read-out: p-Abl IC50
T1 construct: His6 with TEV cleavage site ([…] leader) (N); purchased deCode Genetics
T1 sequence (P00519 with tags, fused parts or gaps): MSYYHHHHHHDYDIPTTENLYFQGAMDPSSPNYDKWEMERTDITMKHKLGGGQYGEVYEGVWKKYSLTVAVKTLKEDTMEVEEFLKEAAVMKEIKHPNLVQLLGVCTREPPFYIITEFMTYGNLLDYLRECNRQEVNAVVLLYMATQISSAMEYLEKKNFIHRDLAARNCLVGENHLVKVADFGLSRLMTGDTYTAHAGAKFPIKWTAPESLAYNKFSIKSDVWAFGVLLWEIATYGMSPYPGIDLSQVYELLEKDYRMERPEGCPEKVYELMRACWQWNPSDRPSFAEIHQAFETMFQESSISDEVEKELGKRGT
Method: pAbl Kinase Assay Activity of pAbl kinase (Seq. […] Science (2000) 289, 1938-1942). In this assay, the oxidation of NADH (thus the decrease at […]) was continuously monitored spectrophometrically. […] Test compounds were incubated with pAbl (SEQ. […] The absorption at 340 nm was monitored continuously for 2 hours at 30° C. on Polarstar Optima plate reader (BMG). The reaction rate was calculated using the 1.0 to 2.0 h time frame. Percent inhibition was obtained by comparison of reaction rate with that of a control (i.e. with no test compound). IC50 values were calculated from a series of percent inhibition values determined at a range of inhibitor concentrations using software routines as implemented in the GraphPad Prism software package. pAbl was obtained as a phosphorylated form of the enzyme used in the Abl assay (see above).

[2] = target: T2, Abl kinase (Seq. ID no. 1) (Homo sapiens, UniProt P00519); assay: Abl kinase (u-Abl) spectrophotometric coupled kinase assay; format: biochemical; conditions: for pIC50: unphosphorylated-Abl kinase, 2 h preincubation, ATP 500 μM
T2 construct: His6 with TEV cleavage site ([…] leader) (N); purchased deCode Genetics
T2 sequence (P00519 with tags, fused parts or gaps): T1 sequence (P00519 with tags, fused parts or gaps)
Method: Abl kinase (Seq. […] Activity of Abl kinase (Seq. […] Science (2000) 289, 1938-1942). In this assay, the oxidation of NADH (thus the decrease at A340 nm) was continuously monitored spectrophometrically. […] Test compounds were incubated with Abl kinase (Seq. […] The absorption at 340 nm was monitored continuously for 2 hours at 30° C. on Polarstar Optima plate reader (BMG). The reaction rate was calculated using the 1.0 to 2.0 h time frame. Percent inhibition was obtained by comparison of reaction rate with that of a control (i.e. with no test compound). IC50 values were calculated from a series of percent inhibition values determined at a range of inhibitor concentrations using software routines as implemented in the GraphPad Prism software package.

[3] = target: T3, Abl(T315I) (Seq. ID no. 2) kinase (Homo sapiens, UniProt P00519, T315I); assay: Abl(T315I) kinase spectrophotometric coupled kinase assay; format: biochemical; conditions: for pIC50: T315I mutant Abl kinase, 2 h preincubation, ATP 500 μM
T3 construct: His6 with TEV cleavage site ([…] leader) (N); purchased decode Genetics
T3 sequence (P00519 with tags, fused parts or gaps T315I): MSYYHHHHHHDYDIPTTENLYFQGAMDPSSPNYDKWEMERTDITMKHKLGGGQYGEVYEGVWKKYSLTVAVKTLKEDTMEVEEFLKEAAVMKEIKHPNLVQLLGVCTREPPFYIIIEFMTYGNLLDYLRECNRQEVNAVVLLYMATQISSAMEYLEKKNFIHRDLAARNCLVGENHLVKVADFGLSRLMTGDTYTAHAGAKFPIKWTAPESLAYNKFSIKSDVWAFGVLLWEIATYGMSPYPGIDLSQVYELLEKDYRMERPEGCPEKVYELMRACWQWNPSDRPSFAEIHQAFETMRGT
Method: Science (2000) 289, 1938-1942). In this assay, the oxidation of NADH (thus the decrease at A340nm) was continuously monitored spectrophometrically. […] (SEQ. […] The absorption at 340 nm was monitored continuously for 2 hours at 30° C. on Polarstar Optima plate reader (BMG). The reaction rate was calculated using the 1.0 to 2.0 h time frame. Percent inhibition was obtained by comparison of reaction rate with that of a control (i.e. with no test compound). IC50 values were calculated from a series of percent inhibition values determined at a range of inhibitor concentrations using software routines as implemented in the GraphPad Prism software package.

[4] = tested on: BaF3 cells transfected with bcr-Abl point mutant Y253F; assay: Cell proliferation assay, BaF3 Y253F bcr-abl; format: cell-based; conditions: Mus musculus, 72 hours, Cell Titer Blue
Method: (§1) Briefly, cells were grown in RPMI 1640 supplemented with 10% characterized fetal bovine serum (HyClone, Logan, Utah) at 37 degrees Celsius, 5% CO2, 95% humidity. Cells were allowed to expand until reaching 80% saturation at which point they were subcultured or harvested for assay use.
(§2) A serial dilution of test compound was dispensed into a 96 well black clear bottom plate (Corning, Corning, N.Y.). For each cell line, three thousand cells were added per well in complete growth medium. Plates were incubated for 72 hours at 37 degrees Celsius, 5% CO2, 95% humidity. At the end of the incubation period Cell Titer Blue (Promega, Madison, Wis.) was added to each well and an additional 4.5 hour incubation at 37 degrees Celsius, 5% CO2, 95% humidity was performed. Plates were then read on a BMG Fluostar Optima (BMG, Durham, N.C.) using an excitation of 544 nm and an emission of 612 nm. Data was analyzed using Prism software (Graphpad, San Diego, Calif.) to calculate IC50's.

[5] = tested on: BaF3 cells transfected with bcr-Abl point mutant T315I; assay: Cell proliferation assay, BaF3 T315I bcr-abl; format: cell-based; conditions: Mus musculus, 72 hours, Cell Titer Blue
Method: as §1, §2

[6] = tested on: BaF3 cells transfected with bcr-Abl point mutant M351T; assay: Cell proliferation assay, BaF3 M351T bcr-abl; format: cell-based; conditions: Mus musculus, 72 hours, Cell Titer Blue
Method: as §1, §2

[7] = tested on: BaF3 cells transfected with bcr-Abl point mutant E255K; assay: Cell proliferation assay, BaF3 E255K bcr-abl; format: cell-based; conditions: Mus musculus, 72 hours, Cell Titer Blue
Method: as §1, §2

[8] = tested on: BaF3 cells transfected with wild type bcr-Abl; assay: Cell proliferation assay, BaF3 wt bcr-abl; format: cell-based; conditions: Mus musculus, 72 hours, Cell Titer Blue
Method: as §1, §2

| SMILES | pIC50 [1] | times more potent vs. p-Abl kinase than Compound C ([1]; relative to Compound C) | times more potent vs. u-Abl kinase than Compound C ([2]; relative to unsubstituted (R16=H) Compound C) | pIC50 [2] | pIC50 [3] | times more potent vs. T315I mutant Abl kinase than Compound C ([3]; relative to Compound C) | pIC50 [4] | pIC50 [5] | pIC50 [6] | pIC50 [7] | pIC50 [8] | times more potent vs. p-Abl kinase than Compound A ([1]; relative to unsubstituted (R16=H) Compound A) | times more potent vs. p-Abl kinase than Compound B ([1]; relative to Compound B) | times more potent vs. u-Abl kinase than Compound B ([2]; relative to unsubstituted (R16=H) Compound B) | times more potent vs. T315I mutant Abl kinase than Compound B ([3]; relative to Compound B) |
| --- | --- | --- | --- | --- | --- | --- | --- | --- | --- | --- | --- | --- | --- | --- | --- |
| CNC(=O)c1cc(Oc2ccc(NC(=O)Nc3cc(C(C)(C)C)nn3-c3ccc4[nH]ncc4c3)c(F)c2)ccn1 [Example 4, 1-(3-tert-butyl-1-(1H-indazol-5-yl)-1H-pyrazol-5-yl)-3-(2-fluoro-4-(2-(methylcarbamoyl)pyridin-4-yloxy)phenyl)urea] | 7.70 | 18 times | 2.2 times | 9.15 | 7.92 | 13 times |  |  |  |  |  |  |  |  |  |
| CNC(=O)c1cc(Oc2ccc(NC(=O)Nc3cc(C(C)(C)C)nn3-c3ccc4ncccc4c3)cc2C)ccn1 [Example 5, 1-(3-tert-butyl-1-(quinolin-6-yl)-1H-pyrazol-5-yl)-3-(3-methyl-4-(2-(methylcarbamoyl)pyridin-4-yloxy)phenyl)urea] | 8.22 |  |  | 9.15 | 6.60 |  | 7.82 | 7.60 | 8.00 | 7.21 | 8.10 | 4 times |  |  |  |
| CC(C)c1cc(NC(=O)Nc2ccc(Oc3ccnc(C(N)=O)c3)cc2F)n(-c2ccc3ncccc3c2)n1 [Example 15, 1-(4-(2-carbamoylpyridin-4-yloxy)-2-fluorophenyl)-3-(3-isopropyl-1-(quinolin-6-yl)-1H-pyrazol-5-yl)urea] | 7.46 |  |  | 9.00 | 7.25 |  | 7.07 | 7.60 | 7.89 | 6.62 | 7.96 |  | > 14 times | 8 times | 18 times |
